Data as given in patent publication US10428044B2, “3-amino-1,5,6,7-tetrahydro-4H-indol-4-ones” (Bayer Pharma Aktiengesellschaft, priority 2014, dated 2019).

Molecular target: (recombinant) catalytic domain of human Bub1 (amino acids 704-1085) (Homo sapiens (Human), UniProt O43683)
Experiment: Bub1 kinase assay (TR-FRET)
Format: biochemical
Details: ATP 10 μM final, peptide substrate 1 μM final, 60 min at 22° C., read-out: Biological Assay: Bub1 kinase assay median IC50
Experimental: Examples were tested in selected biological assays one or more times. When tested more than once, data are reported as either average values or as median values, wherein • the average value, also referred to as the arithmetic mean value, represents the sum of the values obtained divided by the number of times tested, and • the median value represents the middle number of the group of values when ranked in ascending or descending order. If the number of values in the data set is odd, the median is the middle value. If the number of values in the data set is even, the median is the arithmetic mean of the two middle values.
To this end, 100-fold concentrated compound solutions (in DMSO) were previously prepared by serial dilution (1:3.4) of 2 mM stocks in a clear low volume 384-well source microtiter plate (Greiner Bio-One, Frickenhausen, Germany), from which 50 nl of compounds were transferred into a black low volume test microtiter plate from the same supplier. […] The resulting mixture (5 μL final volume) was incubated at 22° C. during 60 min., and the reaction was stopped by the addition of 5 μL of an aqueous EDTA-solution (50 mM EDTA, in 100 mM HEPES pH 7.5 and 0.2% (w/v) bovine serum albumin) which also contained the TR-FRET detection reagents (0.2 μM streptavidin-XL665 [Cisbio Bioassays, Codolet, France] and 1 nM anti-phosho-Serine antibody [Merck Millipore, cat. #35-002] and 0.4 nM LANCE EU-W1024 labeled anti-mouse IgG antibody [Perkin-Elmer, product no. AD0077, alternatively a Terbium-cryptate-labeled anti-mouse IgG antibody from Cisbio Bioassays can be used]). The stopped reaction mixture was further incubated 1 h at 22° C. in order to allow the formation of complexes between peptides and detection reagents. Subsequently, the amount of product was evaluated by measurement of the resonance energy transfer from the Eu-chelate-antibody complex recognizing the Phosphoserine residue to the streptavidin-XL665 bound to the biotin moiety of the peptide. […] The data were normalised using two sets of control wells for high- (=enzyme reaction without inhibitor=0%=Minimum inhibition) and low- (=all assay components without enzyme=100%=Maximum inhibition) Bub1 activity. IC50 values were calculated by fitting the normalized inhibition data to a 4-parameter logistic equation (Minimum, Maximum, IC50, Hill; Y=Max+(Min−Max)/(1+(X/IC50)Hill)).

Chain of (recombinant) catalytic domain of human Bub1 (amino acids 704-1085) (O43683 704-1085): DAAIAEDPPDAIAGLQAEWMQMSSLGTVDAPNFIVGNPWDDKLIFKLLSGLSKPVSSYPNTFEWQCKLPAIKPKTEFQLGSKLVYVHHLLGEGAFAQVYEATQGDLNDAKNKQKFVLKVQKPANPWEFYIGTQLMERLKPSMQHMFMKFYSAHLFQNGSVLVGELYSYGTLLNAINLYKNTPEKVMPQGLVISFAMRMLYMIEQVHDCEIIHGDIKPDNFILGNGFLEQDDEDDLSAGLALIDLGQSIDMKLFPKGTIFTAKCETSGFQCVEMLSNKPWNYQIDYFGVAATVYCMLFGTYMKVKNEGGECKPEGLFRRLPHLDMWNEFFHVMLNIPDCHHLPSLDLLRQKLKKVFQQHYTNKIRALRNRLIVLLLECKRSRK

Row | IC50 [nM] | SMILES
1 | 58.8 | O=C1CCCc2[nH]c(-c3ccncc3OCCO)c(Nc3ccccc3)c21 [Example 459, 2-[3-(2-hydroxyethoxy)pyridin-4-yl]-3-(phenylamino)-1,5,6,7-tetrahydro-4H-indol-4-one]
2 | 43.3 | CC1(C)CC(=O)c2c([nH]c(-c3ccnc4[nH]ccc34)c2Nc2ccccc2)C1 [Example 27, 6,6-dimethyl-3-(phenylamino)-2-(1H-pyrrolo[2,3-b]pyridin-4-yl)-1,5,6,7-tetrahydro-4H-indol-4-one]
3 | 45.9 | O=C1CCCc2[nH]c(-c3ccnc(NC(=O)C4CC4c4ccccc4)c3)c(Nc3ccccc3)c21 (stereo not shown) [Example 239, N-{4-[4-oxo-3-(phenylamino)-4,5,6,7-tetrahydro-1H-indol-2-yl]pyridin-2-yl}-2-phenylcyclopropanecarboxamide]
4 | 140 | CC(C)(CF)C(=O)Nc1cc(-c2[nH]c3c(c2Nc2ccccc2)C(=O)CCC3)ccn1 [Example 263, 3-fluoro-2,2-dimethyl-N-{4-[4-oxo-3-(phenylamino)-4,5,6,7-tetrahydro-1H-indol-2-yl]pyridin-2-yl}propanamide]
5 | 10.5 | O=C1CCCc2[nH]c(-c3ccnc(NC(=O)[C@H]4C[C@@H]4F)c3)c(Nc3ccccc3)c21 [Example 251, (R,S/S,R)-2-fluoro-N-{4-[4-oxo-3-(phenylamino)-4,5,6,7-tetrahydro-1H-indol-2-yl]pyridin-2-yl}cyclopropanecarboxamide]
6 | 340 | Cn1nccc1CC(=O)Nc1cc(-c2[nH]c3c(c2Nc2ccccc2)C(=O)CCC3)ccn1 [Example 292, 2-(1-methyl-1H-pyrazol-5-yl)-N-{4-[4-oxo-3-(phenylamino)-4,5,6,7-tetrahydro-1H-indol-2-yl]pyridin-2-yl}acetamide]
7 | 53.5 | O=C1CCCc2[nH]c(-c3ccncc3OCC(F)F)c(Nc3ccccc3)c21 [Example 457, 2-[3-(2,2-difluoroethoxy)pyridin-4-yl]-3-(phenylamino)-1,5,6,7-tetrahydro-4H-indol-4-one]
8 | 31 | CSCC(=O)Nc1cc(-c2[nH]c3c(c2Nc2ccccc2)C(=O)CCC3)ccn1 [Example 244, 2-(methylsulfanyl)-N-{4-[4-oxo-3-(phenylamino)-4,5,6,7-tetrahydro-1H-indol-2-yl]pyridin-2-yl}acetamide]
9 | 157 | CC1(C)CC(=O)c2c([nH]c(-c3ccnc(C(F)F)c3)c2Nc2ccccc2)C1 [Example 400, 2-[2-(difluoromethyl)pyridin-4-yl]-6,6-dimethyl-3-(phenylamino)-1,5,6,7-tetrahydro-4H-indol-4-one]
10 | 18.4 | O=C(Nc1cc(-c2[nH]c3c(c2Nc2ccccc2)C(=O)CCC3)ccn1)c1ccsn1 [Example 276, N-{4-[4-oxo-3-(phenylamino)-4,5,6,7-tetrahydro-1H-indol-2-yl]pyridin-2-yl}-1,2-thiazole-3-carboxamide]
11 | 87.5 | CNC(=S)Nc1cc(-c2[nH]c3c(c2Nc2ccccc2)C(=O)CCC3)ccn1 [Example 392, 1-methyl-3-{4-[4-oxo-3-(phenylamino)-4,5,6,7-tetrahydro-1H-indol-2-yl]pyridin-2-yl}thiourea]
12 | 3320 | O=C1CCCc2[nH]c(-c3ccnc(NCCc4ccccc4)c3)c(Nc3ccccc3)c21 [Example 489, 3-(phenylamino)-2-{2-[(2-phenylethyl)amino]pyridin-4-yl}-1,5,6,7-tetrahydro-4H-indol-4-one]
13 | 7.33 | Cn1ccc(C(=O)Nc2cc(-c3[nH]c4c(c3Nc3ccccc3)C(=O)CCC4)ccn2)n1 [Example 454, 1-methyl-N-{4-[4-oxo-3-(phenylamino)-4,5,6,7-tetrahydro-1H-indol-2-yl]pyridin-2-yl}-1H-pyrazole-3-carboxamide]
14 | 4.04 | CC(C)C1CC(=O)c2c([nH]c(-c3ccncc3)c2Nc2ccccc2)C1 (single isomer, unassigned) [Example 17, 3-(phenylamino)-6-(propan-2-yl)-2-(pyridin-4-yl)-1,5,6,7-tetrahydro-4H-indol-4-one]
15 | 3.96 | Cn1cc(NC(=O)Nc2cc(-c3[nH]c4c(c3Nc3ccccc3)C(=O)CCC4)ccn2)cn1 [Example 390, 1-(1-methyl-1H-pyrazol-4-yl)-3-{4-[4-oxo-3-(phenylamino)-4,5,6,7-tetrahydro-1H-indol-2-yl]pyridin-2-yl}urea]

More lines, now with the values behind:

Row | SMILES | IC50 [nM]
16 | O=C1CCCc2[nH]c(-c3ccncc3Cl)c(Nc3ccc(F)cc3)c21 [Example 142, 2-(3-chloropyridin-4-yl)-3-[(4-fluorophenyl)amino]-1,5,6,7-tetrahydro-4H-indol-4-one] | 68.5
17 | O=C1CCCc2[nH]c(-c3c(F)cncc3F)c(Nc3cccc(F)c3)c21 [Example 136, 2-(3,5-difluoropyridin-4-yl)-3-[(3-fluorophenyl)amino]-1,5,6,7-tetrahydro-4H-indol-4-one] | 924
18 | CC1(C)CC(=O)c2c([nH]c(-c3ccncc3)c2Nc2ccc(C#N)cc2)C1 [Example 433, 4-{[6,6-dimethyl-4-oxo-2-(pyridin-4-yl)-4,5,6,7-tetrahydro-1H-indol-3-yl]amino}benzonitrile] | 2930
19 | CC1(C)CC(=O)c2c([nH]c(-c3ccncc3)c2Nc2ccccc2Br)C1 [Example 71, 3-[(2-bromophenyl)amino]-6,6-dimethyl-2-(pyridin-4-yl)-1,5,6,7-tetrahydro-4H-indol-4-one] | 49.7
20 | CC1(C)CC(=O)c2c([nH]c(-c3ccncc3)c2Nc2cccc(Oc3ccccc3)c2)C1 [Example 421, 6,6-dimethyl-3-[(3-phenoxyphenyl)amino]-2-(pyridin-4-yl)-1,5,6,7-tetrahydro-4H-indol-4-one] | 200
21 | O=C1CC(C(F)(F)F)Cc2[nH]c(-c3ccncc3)c(Nc3ccccc3)c21 (single isomer, unassigned) [Example 441, 3-(phenylamino)-2-(pyridin-4-yl)-6-(trifluoromethyl)-1,5,6,7-tetrahydro-4H-indol-4-one] | 5.72
22 | CC1(C)CC(=O)c2c([nH]c(-c3ccncc3)c2Nc2ccc(Cc3ccccc3)cc2)C1 [Example 513, 3-[(4-benzylphenyl)amino]-6,6-dimethyl-2-(pyridin-4-yl)-1,5,6,7-tetrahydro-4H-indol-4-one] | > 20000
23 | CC1(C)CC(=O)c2c([nH]c(-c3ccncc3)c2Nc2cccc3ccccc23)C1 [Example 157, 6,6-dimethyl-3-(naphthalen-1-ylamino)-2-(pyridin-4-yl)-1,5,6,7-tetrahydro-4H-indol-4-one] | 764
24 | CC1(C)CC(=O)c2c([nH]c(-c3cc(Cl)ncc3F)c2Nc2ccccc2)C1 [Example 220, 2-(2-chloro-5-fluoropyridin-4-yl)-6,6-dimethyl-3-(phenylamino)-1,5,6,7-tetrahydro-4H-indol-4-one] | 1400
25 | CC1(C)CC(=O)c2c([nH]c(-c3ccncc3)c2Nc2ccc(F)c(OC(F)(F)F)c2)C1 [Example 148, 3-{[4-fluoro-3-(trifluoromethoxy)phenyl]amino}-6,6-dimethyl-2-(pyridin-4-yl)-1,5,6,7-tetrahydro-4H-indol-4-one] | 479
26 | CC1(C)CC(=O)c2c([nH]c(-c3ccncc3)c2Nc2cccc(N)c2)C1 [Example 65, 3-[(3-aminophenyl)amino]-6,6-dimethyl-2-(pyridin-4-yl)-1,5,6,7-tetrahydro-4H-indol-4-one] | 525
27 | CC1(C)CC(=O)c2c([nH]c(-c3ccncc3)c2Nc2cc(F)cc(F)c2)C1 [Example 31, 3-[(3,5-difluorophenyl)amino]-6,6-dimethyl-2-(pyridin-4-yl)-1,5,6,7-tetrahydro-4H-indol-4-one] | 5.55
28 | C#Cc1cccc(Nc2c(-c3ccncc3)[nH]c3c2C(=O)CC(C)(C)C3)c1 [Example 428, 3-[(3-ethynylphenyl)amino]-6,6-dimethyl-2-(pyridin-4-yl)-1,5,6,7-tetrahydro-4H-indol-4-one] | 509
29 | CC1(C)CC(=O)c2c([nH]c(-c3ccncc3)c2Nc2cc(Cl)cc(Cl)c2)C1 [Example 77, 3-[(3,5-dichlorophenyl)amino]-6,6-dimethyl-2-(pyridin-4-yl)-1,5,6,7-tetrahydro-4H-indol-4-one] | 1550
30 | CC1(C)CC(=O)c2c([nH]c(-c3ccncc3)c2Nc2ccc3occc3c2)C1 [Example 67, 3-(1-benzofuran-5-ylamino)-6,6-dimethyl-2-(pyridin-4-yl)-1,5,6,7-tetrahydro-4H-indol-4-one] | 87.1
31 | CCC(O)c1cccc(Nc2c(-c3ccncc3)[nH]c3c2C(=O)CC(C)(C)C3)c1 (stereo not shown) [Example 154, 3-{[3-(1-hydroxypropyl)phenyl]amino}-6,6-dimethyl-2-(pyridin-4-yl)-1,5,6,7-tetrahydro-4H-indol-4-one] | 3000
